Data on two compounds can be found in US9346797B1, “2-amino 6-(difluoromethyl)-5,5-difluoro-6-phenyl-3,4,5,6-tetrahydropyridines as BACE1 inhibitors” (H. Lundbeck A/S, priority 2014, dated 2016).

One data set relates to P-gp (MDR1). In words: MDCK-MDR1 assay (permeability/efflux). To be noted: dog, Papp BA/Papp AB, 60-minute incubation, Pgp substrate when ≧2. In kind it is in vitro ADME. Here is the method: The permeability of the test compounds was assessed in MDCK-MDR1 cells that were cultured to confluency (4-6 days) in a 96 transwell plate. Test compounds were diluted with the transport buffer (HBSS+1% BSA) to a concentration of 0.5 μM and applied to the apical or basolateral side of the cell monolayer. Permeation of the test compounds from A to B direction or B to A direction was determined in triplicate over a 60-minute incubation time at 37° C. and 5% CO2 with a relative humidity of 95%. Test compounds were quantified by LC-MS/MS analysis based on the peaks area ratios of analyte/IS in both the receiver and donor wells of the transwell plate.
The apparent permeability coefficient Papp (cm/s) was calculated using the equation: Papp=(dCr/dt)×Vr/(A×C0)
Where dCr/dt is the cumulative concentration of compound in the receiver chamber as a function of time (μM/s); Vr is the solution volume in the receiver chamber (0.05 mL on the apical side; 0.25 mL on the basolateral side); A is the surface area for the transport, i.e. 0.0804 cm^2 for the area of the monolayer; CO is the initial concentration in the donor chamber (μM).
Compounds are classified Pgp substrates when efflux ratio (Papp BA/Papp AB) is ≧2.

The nature of data set [1]: Bioanalysis of brain and plasma samples (exposure, UPLC-MS/MS). In kind it is in vivo. Conditions: male, Sprague Dawley, po, rat, 3 hours post dose; for Kp at 3 h: brain/plasma, read-out: Brain/Plasma ratio; for concentration at 3 h: read-out: Exp. Here is the method:
Young adult Male Sprague Dawley rats of approximately 250 g weight were purchased from Charles River and received 0-30 mg/kg of vehicle (10% HP betaCD+1M MeSO4, pH 2.5) or test compounds (dissolved in vehicle) only by oral gavage (p.o). The compounds are dosed at a volume of 5 ml/kg. Cohorts of 5-10 animals were established for each treatment condition.
At T=180 minutes after initial dosing the animals were stunned and decapitated with a guillotine. Trunk-blood was sampled in EDTA coated tubes after decapitation of the animal. The blood was centrifuged at 2200 G at 4° C. for 15 minutes and the plasma was collected and frozen at −80° C. The blood was aliquoted for Aβ ELISA and DMPK analysis Immediately following sacrifice, the brain was extracted and split into 2 halves. The right hemibrains were snap frozen on dry ice and stored at −80° C. The left half was dissected; with the front forebrain taken for Aβ ELISA and the remainder used for DMPK analysis. These samples were also snap frozen on dry ice and stored at −80° C. until use for analysis.
TC was determined in plasma and brain homogenate using UltraPerformance LC® (UPLC®) chromatography followed by tandem-MS (MS/MS) detection.
Brain homogenate was prepared by homogenizing the brain 1:4 (v/v) with water:2-propanol:DMSO (50:30:20 v/v/v) followed by centrifugation and collection of the supernatant. Calibration standards and QC samples were prepared using a Hamilton robot. 150 μL of ISTD in acetonitrile (1 ng/mL ISTD) was added to 25 μL of calibration standards, QC samples and test samples (plasma and brain homogenate) using a Biomek robot. After centrifugation (6200 g, 4° C., 20 min) 100 μL supernatant from each sample was transferred to a new plate and mixed with 100 μL water with 0.1% formic acid using a Biomek robot (method file InVivo transfer). After a quick centrifugation (6200 g, 4° C., 5 min) the samples were placed in the auto-sampler.
MS/MS detection was done with an Applied Biosystems Sciex API 4000 instrument in positive-ion electrospray ionisation mode. TC and ISTD were detected at a parent>daughter mass to charge ratio (m/z). Nitrogen was used for the nebulizer and collision gases. The peak area correlated linearly with the plasma and brain concentration of the analytes in the range of 1.00-1000 ng/mL plasma and 5.00-5000 ng/g brain (corrected for dilution). If the plasma/brain sample drug concentration was above 1000 ng/mL or 5000 ng/g, the sample was diluted appropriately in blank plasma/blank brain homogenate before analysis. […]

Another data set deals with human BACE1 (Homo sapiens (Human), UniProt P56817). Nature of the data set: BACE1 binding assay (SPA-based radioligand binding). Conditions: pH 4.5, Ki calculated from IC50. As to the method:
The binding assay was performed as SPA-based assay using a biotinylated form of human BACE1 recombinantly expressed and subsequently purified from Freestyle HEK293 cells. The binding assay was run in a 50 mM sodium acetate buffer, pH 4.5 containing 50 mM NaCl and 0.03% Tween-20 in white clear bottom 384 plates (Corning #3653). 10 nM (final concentration) radioligand ([^3H]—N-((1S,2R)-1-benzyl-3-cyclopropylamino-2-hydroxy-propyl)-5-(methanesulfonyl-methyl-amino)-N—((R)-1-phenyl-ethyl)-isophthalamide) (TRQ11569 purchased from GE Healthcare) was mixed with test compound at a given concentration, 6 nM (final concentration) human BACE1 and 25 μg Streptavidin coated PVT core SPA beads (RPNQ0007, GE Healthcare Life Sciences) in a total volume of 40 μl. Several concentrations of each test compound were tested in the assay for IC50 determination. The plates were incubated for one hour at room temperature and counted in a Wallac Trilux counter. Total and non-specific binding were determined using buffer and 1 μM (final concentration) of the high affinity BACE1 reference inhibitor (S)-6-[3-chloro-5-(5-prop-1-ynyl-pyridin-3-yl)-thiophen-2-yl]-2-imino-3,6-dimethyl-tetrahydro-pyrimidin-4-one, respectively. For each test compound, a IC50 value (the concentration mediating 50% inhibition of the specific binding of the radioligand) was determined from concentration-response curve and used to calculate the Ki from the equation Ki=IC50/(1+L/Kd), where L and Kd are the final concentration of the radioligand used in the assay and the dissociation constant of the radioligand, respectively. The Kd of the radioligand was determined from saturation binding experiments.

Read-outs that look alike come from different tables or passages of the source.

Chain of human BACE1 (P56817 46-501): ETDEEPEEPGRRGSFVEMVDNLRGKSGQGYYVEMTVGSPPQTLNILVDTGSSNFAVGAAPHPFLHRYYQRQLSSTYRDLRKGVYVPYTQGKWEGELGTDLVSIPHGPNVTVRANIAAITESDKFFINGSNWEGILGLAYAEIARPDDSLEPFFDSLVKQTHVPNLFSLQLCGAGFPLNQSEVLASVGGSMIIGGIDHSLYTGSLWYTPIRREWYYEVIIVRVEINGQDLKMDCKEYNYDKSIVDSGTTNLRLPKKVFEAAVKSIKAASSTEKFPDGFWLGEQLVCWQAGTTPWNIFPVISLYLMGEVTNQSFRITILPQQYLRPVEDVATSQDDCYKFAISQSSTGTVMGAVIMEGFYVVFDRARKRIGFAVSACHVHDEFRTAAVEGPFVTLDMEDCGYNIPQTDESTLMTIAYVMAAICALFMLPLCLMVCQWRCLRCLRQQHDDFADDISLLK

`COc1cnc(C(=O)Nc2ccc(F)c([C@@]3(C(F)F)N=C(N)CCC3(F)F)c2)cn1` [Compound 3, (S)—N-(3-(6-amino-2-(difluoromethyl)-3,3-difluoro-2,3,4,5-tetrahydropyridin-2-yl)-4-fluorophenyl)-5-methoxypyrazine-2-carboxamide]: in the data set with P-gp (MDR1), the efflux ratio – broadly, the permeability from basolateral to apical divided by that in the opposite direction, in the common usage – at 60 min, 0.5 μM was 1.22. The Kp at 3 h in data set [1] (10 mg/kg p.o.) was determined as 0.3; in data set [1] (30 mg/kg p.o.) it was 0.32. For the same compound, the concentration at 3 h in data set [1] (brain, 10 mg/kg p.o.) was 511 ng/g; in data set [1] (brain, 30 mg/kg p.o.) it was 2280 ng/g; in data set [1] (plasma, 10 mg/kg p.o.), 1680 ng/g; in data set [1] (plasma, 30 mg/kg p.o.) it was 7060 ng/g. The inhibitory constant (Ki) (as a rule, the dissociation constant of the complex between target and ligand, obtained from inhibition or displacement) on human BACE1 was 8.5 nM.
For `COc1ccc(C(=O)Nc2ccc(F)c([C@@]3(C(F)F)N=C(N)CCC3(F)F)c2)nc1` [Compound 5, (S)—N-(3-(6-amino-2-(difluoromethyl)-3,3-difluoro-2,3,4,5-tetrahydropyridin-2-yl)-4-fluorophenyl)-5-methoxypicolinamide], the efflux ratio at 60 min, 0.5 μM with P-gp (MDR1) came out at 0.99. The Kp at 3 h is 0.28 in data set [1] (10 mg/kg p.o.) and 0.29 in data set [1] (30 mg/kg p.o.). Further, the concentration at 3 h in data set [1] (brain, 10 mg/kg p.o.) turned out to be 187 ng/g; in data set [1] (brain, 30 mg/kg p.o.), 959 ng/g; in data set [1] (plasma, 10 mg/kg p.o.), 660 ng/g; in data set [1] (plasma, 30 mg/kg p.o.), 3350 ng/g. In addition, at human BACE1, the Ki is 6.7 nM.
